Test results reported in ChEMBL document CHEMBL5143521, “Identification of a selective BRD4 PROTAC with potent antiproliferative effects in AR-positive prostate cancer based on a dual BET/PLK1 inhibitor” (Eur J Med Chem, 2022).
The source made the active and inactive calls. The rule behind the calls is not given here.

How the values were obtained:
[1] = target: Serine/threonine-protein kinase PLK1 (Homo sapiens, UniProt P53350); assay: Inhibition of recombinant full length human PLK1 using casein as substrate incubated for 40 mins in presence of [gamma-33P]-ATP by radiometric scintillation counting method
[2] = target: Bromodomain-containing protein 4 (Homo sapiens, UniProt O60885); assay: Inhibition of BRD4 (unknown origin) by alpha-screen assay
[3] = test system: MV4-11; assay: Antiproliferative activity against human MV4-11 cells assessed as reduction in cell viability measured after 4 days by MTT assay; format: functional, cell-based; conditions: MV4-11, 96 h
[4] = test system: VCaP; assay: Antiproliferative activity against AR-positive human VCaP cells assessed as reduction in cell viability measured after 4 days by MTT assay; format: functional, cell-based; conditions: 96 h
[5] = test system: CWR22R; assay: Inhibition of colony formation in AR-positive human 22Rv1 cells at 1 nM measured after 12 days by crystal violet staining based assay; format: functional, cell-based; conditions: time 12.0 day
[6] = test system: PC-3; assay: Inhibition of colony formation in AR-negative human castration resistant PC-3 cells at 1 nM measured after 12 days by crystal violet staining based assay; format: functional, cell-based; conditions: time 12.0 day
[7] = test system: CWR22R; assay: Antiproliferative activity against AR-positive human 22Rv1 cells assessed as reduction in cell viability at 1 nM incubated for 3 days followed by compound washout and measured after 8 days; format: functional; conditions: 22Rv1, 72 h, time 3 day
[8] = test system: CWR22R; assay: Antiproliferative activity against AR-positive human 22Rv1 cells assessed as reduction in cell viability measured after 4 days by MTT assay; format: functional, cell-based; conditions: 22Rv1, 96 h
[9] = test system: DU-145; assay: Inhibition of colony formation in AR-negative human castration resistant DU-145 cells at 1 nM measured after 12 days by crystal violet staining based assay; format: functional, cell-based; conditions: time 12.0 day
[10] = test system: CWR22R; assay: Induction of cell cycle arrest in AR-positive human 22Rv1 cells assessed as downregulation of CDK6 expression at 1 to 3 uM measured after 72 hrs by Western blot analysis; format: functional, cell-based; conditions: dose 1-3 µM
[11] = test system: DU-145; assay: Antiproliferative activity against AR-negative human castration resistant DU-145 cells assessed as reduction in cell viability measured after 4 days by MTT assay; format: functional, cell-based; conditions: DU-145, 96 h
[12] = test system: LNCaP; assay: Antiproliferative activity against AR-positive harmone sensitive human LNCaP cells assessed as reduction in cell viability at 1 nM incubated for 3 days followed by compound washout and measured after 8 days; format: functional; conditions: 72 h, time 3 day
[13] = test system: CWR22R; assay: Induction of cell cycle arrest in AR-positive human 22Rv1 cells assessed as accumulation of cells at G2/M phase at 1 to 3 uM measured after 72 hrs by flow cytometry analysis; format: functional, cell-based; conditions: dose 1-3 µM
[14] = test system: CWR22R; assay: Induction of cell cycle arrest in AR-positive human 22Rv1 cells assessed as downregulation of cyclin E expression at 1 to 3 uM measured after 72 hrs by Western blot analysis; format: functional, cell-based; conditions: dose 1-3 µM
[15] = test system: CWR22R; assay: Induction of cell cycle arrest in AR-positive human 22Rv1 cells assessed as upregulation of cyclin B1 expression at 1 to 3 uM measured after 72 hrs by Western blot analysis; format: functional, cell-based; conditions: dose 1-3 µM
[16] = test system: PC-3; assay: Antiproliferative activity against AR-negative human castration resistant PC-3 cells assessed as reduction in cell viability measured after 4 days by MTT assay; format: functional, cell-based; conditions: PC-3, 96 h
[17] = test system: LNCaP; assay: Antiproliferative activity against AR-positive harmone sensitive human LNCaP cells assessed as reduction in cell viability measured after 4 days by MTT assay; format: functional, cell-based; conditions: 96 h
[18] = test system: CWR22R; assay: Induction of cell cycle arrest in AR-positive human 22Rv1 cells assessed as downregulation of CDK2 expression at 1 to 3 uM measured after 72 hrs by Western blot analysis; format: functional, cell-based; conditions: dose 1-3 µM
[19] = test system: DU-145; assay: Antiproliferative activity against negative human castration resistant DU-145 cells assessed as reduction in cell viability at 1 nM incubated for 3 days followed by compound washout and measured after 8 days; format: functional, cell-based; conditions: time 3.0 day
[20] = test system: CWR22R; assay: Induction of cell cycle arrest in AR-positive human 22Rv1 cells assessed as downregulation of cyclin D1 expression at 1 to 3 uM measured after 72 hrs by Western blot analysis; format: functional, cell-based; conditions: dose 1-3 µM
[21] = test system: VCaP; assay: Inhibition of c-Myc expression level in human VCap cells at 10 nM incubated for 24 hrs by immunoblotting analysis; format: functional, cell-based
[22] = target: Protein cereblon/Bromodomain-containing protein 4 (Homo sapiens) (UniProt O60885+Q96SW2); assay: Protac activity at BRD4/CRBN in human VCaP cells assessed as degradation of BRD4 by measuring downregulation of BRD4 expression level at 10 nM incubated for 24 hrs by immunoblotting analysis; format: cell-based
Sequence of Protein cereblon/Bromodomain-containing protein 4 (Homo sapiens) (Q96SW2 whole entry, looked up, other chains not shown): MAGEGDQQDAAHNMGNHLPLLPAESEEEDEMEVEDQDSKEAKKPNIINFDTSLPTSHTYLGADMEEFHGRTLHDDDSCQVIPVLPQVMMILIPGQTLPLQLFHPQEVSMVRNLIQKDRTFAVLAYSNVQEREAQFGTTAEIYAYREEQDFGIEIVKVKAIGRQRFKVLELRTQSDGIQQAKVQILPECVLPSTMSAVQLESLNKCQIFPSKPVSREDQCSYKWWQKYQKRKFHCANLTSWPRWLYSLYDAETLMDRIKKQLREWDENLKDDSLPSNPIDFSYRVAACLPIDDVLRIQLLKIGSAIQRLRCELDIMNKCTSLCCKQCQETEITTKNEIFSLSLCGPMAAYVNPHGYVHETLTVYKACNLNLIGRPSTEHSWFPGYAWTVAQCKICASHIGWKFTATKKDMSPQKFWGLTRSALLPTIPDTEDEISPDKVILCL

Sequence of Serine/threonine-protein kinase PLK1 (P53350 whole entry): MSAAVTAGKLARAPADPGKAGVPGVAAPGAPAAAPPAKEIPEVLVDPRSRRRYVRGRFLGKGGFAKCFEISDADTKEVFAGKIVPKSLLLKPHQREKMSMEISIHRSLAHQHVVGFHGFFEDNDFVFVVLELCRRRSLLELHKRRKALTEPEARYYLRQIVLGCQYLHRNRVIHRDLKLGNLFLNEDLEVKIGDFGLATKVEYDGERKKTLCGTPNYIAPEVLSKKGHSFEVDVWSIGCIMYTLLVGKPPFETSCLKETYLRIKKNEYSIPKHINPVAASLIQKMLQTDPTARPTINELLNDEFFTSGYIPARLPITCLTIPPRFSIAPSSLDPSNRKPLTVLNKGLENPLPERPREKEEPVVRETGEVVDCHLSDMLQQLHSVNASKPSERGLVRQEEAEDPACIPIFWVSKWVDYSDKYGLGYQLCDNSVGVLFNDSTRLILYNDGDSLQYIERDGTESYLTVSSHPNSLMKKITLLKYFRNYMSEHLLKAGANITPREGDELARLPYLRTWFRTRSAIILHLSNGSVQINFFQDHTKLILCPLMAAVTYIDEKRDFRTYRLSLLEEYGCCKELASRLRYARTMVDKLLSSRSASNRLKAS

SMILES	IC50 [1]	IC50 [2]	IC50 [3]	further results
CC[C@@H]1c2nnc(C)n2-c2cnc(Nc3ccc(C(=O)NC4CCN(C(=O)CCCCCCC(=O)Nc5cccc6c5CN(C5CCC(=O)NC5=O)C6=O)CC4)cc3OC)nc2N1CC1CCCCC1 (some centres not stated)	652 nM	190 nM	671 nM	
CC[C@@H]1c2nnc(C)n2-c2cnc(Nc3ccc(C(=O)NC4CCN(C(=O)CCCOc5cccc6c5C(=O)N(C5CCC(=O)NC5=O)C6=O)CC4)cc3OC)nc2N1CC1CCCCC1 (some centres not stated)	788 nM	738 nM	18 nM	
CC[C@@H]1c2nnc(C)n2-c2cnc(Nc3ccc(C(=O)NC4CCN(CCCCNC(=O)COc5cccc6c5C(=O)C(C5CCC(=O)NC5=O)C6=O)CC4)cc3OC)nc2N1CC1CCCCC1 (some centres not stated)	310 nM	219 nM	359 nM	
CC[C@@H]1c2nnc(C)n2-c2cnc(Nc3ccc(C(=O)NC4CCN(C(=O)CNc5cccc6c5CN(C5CCC(=O)NC5=O)C6=O)CC4)cc3OC)nc2N1CC1CCCCC1 (some centres not stated)	1980 nM	259 nM	18 nM	
CC[C@@H]1c2nnc(C)n2-c2cnc(Nc3ccc(C(=O)NC4CCN(CCCCCCCCCCCOc5cccc6c5C(=O)N(C5CCC(=O)NC5=O)C6=O)CC4)cc3OC)nc2N1CC1CCCCC1 (some centres not stated)	3820 nM	379 nM	188 nM	
CC[C@@H]1c2nnc(C)n2-c2cnc(Nc3ccc(C(=O)NC4CCN(CCCCCCCCCCOc5cccc6c5C(=O)N(C5CCC(=O)NC5=O)C6=O)CC4)cc3OC)nc2N1CC1CCCCC1 (some centres not stated)	5570 nM	284 nM	153 nM	
CC[C@@H]1c2nnc(C)n2-c2cnc(Nc3ccc(C(=O)NC4CCN(C)CC4)cc3OC)nc2N1CC1CCCCC1				IC50 [4]: 628 nM; inhibition [5]: Active; inhibition [6]: Active; inhibition at 0.001 µM [7]: 100%; IC50 [8]: 580 nM; inhibition [9]: Active; Activity [10]: Active; IC50 [11]: 1460 nM; inhibition at 0.001 µM [12]: 100%; Activity [13]: Active; Activity [14]: Active; Activity [15]: Active; IC50 [16]: 1400 nM; IC50 [17]: 1450 nM; Activity [18]: Active; inhibition [19]: Active; Activity [20]: Active
CC[C@@H]1c2nnc(C)n2-c2cnc(Nc3ccc(C(=O)NC4CCN(CCCCCCCOc5cccc6c5C(=O)N(C5CCC(=O)NC5=O)C6=O)CC4)cc3OC)nc2N1CC1CCCCC1 (some centres not stated)	1250 nM	209 nM	8 nM	inhibition [21]: Active; Activity [22]: Active
CC[C@@H]1c2nnc(C)n2-c2cnc(Nc3ccc(C(=O)NC4CCN(CCCCCCCCOc5cccc6c5C(=O)N(C5CCC(=O)NC5=O)C6=O)CC4)cc3OC)nc2N1CC1CCCCC1 (some centres not stated)	5140 nM	344 nM	85 nM	
CC[C@@H]1c2nnc(C)n2-c2cnc(Nc3ccc(C(=O)NC4CCN(C(=O)CCCCOc5cccc6c5C(=O)N(C5CCC(=O)NC5=O)C6=O)CC4)cc3OC)nc2N1CC1CCCCC1 (some centres not stated)	1190 nM	370 nM	13 nM	
CC[C@@H]1c2nnc(C)n2-c2cnc(Nc3ccc(C(=O)NC4CCN(C(=O)CCCCNc5cccc6c5CN(C5CCC(=O)NC5=O)C6=O)CC4)cc3OC)nc2N1CC1CCCCC1 (some centres not stated)	1340 nM	311 nM	753 nM	
CC[C@@H]1c2nnc(C)n2-c2cnc(Nc3ccc(C(=O)NC4CCN(CCCCCOc5cccc6c5C(=O)N(C5CCC(=O)NC5=O)C6=O)CC4)cc3OC)nc2N1CC1CCCCC1 (some centres not stated)	1120 nM	151 nM	21 nM	
CC[C@@H]1c2nnc(C)n2-c2cnc(Nc3ccc(C(=O)NC4CCN(C(=O)CCCCCOc5cccc6c5C(=O)N(C5CCC(=O)NC5=O)C6=O)CC4)cc3OC)nc2N1CC1CCCCC1 (some centres not stated)	1230 nM	435 nM	7 nM	
CC[C@@H]1c2nnc(C)n2-c2cnc(Nc3ccc(C(=O)NC4CCN(C(=O)CCCCCCOc5cccc6c5C(=O)N(C5CCC(=O)NC5=O)C6=O)CC4)cc3OC)nc2N1CC1CCCCC1 (some centres not stated)	1840 nM	658 nM	10 nM	
CC[C@@H]1c2nnc(C)n2-c2cnc(Nc3ccc(C(=O)NC4CCN(CCCCCCOc5cccc6c5C(=O)N(C5CCC(=O)NC5=O)C6=O)CC4)cc3OC)nc2N1CC1CCCCC1 (some centres not stated)	2430 nM	121 nM	184 nM	
CC[C@@H]1c2nnc(C)n2-c2cnc(Nc3ccc(C(=O)NC4CCN(C(=O)CCCCCNc5cccc6c5CN(C5CCC(=O)NC5=O)C6=O)CC4)cc3OC)nc2N1CC1CCCCC1 (some centres not stated)	1210 nM	288 nM	10 nM	
CC[C@@H]1c2nnc(C)n2-c2cnc(Nc3ccc(C(=O)NC4CCN(CCCCCCCCCOc5cccc6c5C(=O)N(C5CCC(=O)NC5=O)C6=O)CC4)cc3OC)nc2N1CC1CCCCC1 (some centres not stated)	2130 nM	225 nM	36 nM	
